This note sets out measurements from patent US5453439A, “Hydroxylamine derivatives” (Zeneca Limited, priority 1992, dated 1995).

The test system of test [1] is LTB4 liberation induced by zymosan (5-LO). Kind of test: Test c) in vivo zymosan-induced LTB4 liberation in rat subcutaneous air pouch, oral administration. The conditions noted are these: 3 h; test c). The procedure: c) An in vivo system involving measuring the effects of a test compound administered orally against the liberation of LTB4 induced by zymosan within an air pouch generated within the subcutaneous tissue of the back of male rats. The rats are anaesthetised and air pouches are formed by the injection of sterile air (20 ml). A further injection of air (10 ml) is similarly given after 3 days. At 6 days after the initial air injection the test compound is administered (usually orally as the suspension produced when a solution of the test compound in dimethylsulphoxide is added to hydroxypropylmethylcellulose), followed by the intrapouch injection of zymosan (1 ml of a 1% suspension in physiological saline). After 3 hours the rats are killed, the air pouches are lavaged with physiological saline, and the specific radioimmunoassay described above is used to assay LTB4 in the washings. This test provides an indication of inhibitory effects against 5-LO in an inflammatory milieu.

For test [2], the target named is T1, 5-LO (Homo sapiens, UniProt P09917).
T1 construct: incubating a test compound with heparinised human blood; endogenous in cells; host or cells: heparinised human blood (blood cells; A23187 challenge)
T1 sequence (P09917 1-674): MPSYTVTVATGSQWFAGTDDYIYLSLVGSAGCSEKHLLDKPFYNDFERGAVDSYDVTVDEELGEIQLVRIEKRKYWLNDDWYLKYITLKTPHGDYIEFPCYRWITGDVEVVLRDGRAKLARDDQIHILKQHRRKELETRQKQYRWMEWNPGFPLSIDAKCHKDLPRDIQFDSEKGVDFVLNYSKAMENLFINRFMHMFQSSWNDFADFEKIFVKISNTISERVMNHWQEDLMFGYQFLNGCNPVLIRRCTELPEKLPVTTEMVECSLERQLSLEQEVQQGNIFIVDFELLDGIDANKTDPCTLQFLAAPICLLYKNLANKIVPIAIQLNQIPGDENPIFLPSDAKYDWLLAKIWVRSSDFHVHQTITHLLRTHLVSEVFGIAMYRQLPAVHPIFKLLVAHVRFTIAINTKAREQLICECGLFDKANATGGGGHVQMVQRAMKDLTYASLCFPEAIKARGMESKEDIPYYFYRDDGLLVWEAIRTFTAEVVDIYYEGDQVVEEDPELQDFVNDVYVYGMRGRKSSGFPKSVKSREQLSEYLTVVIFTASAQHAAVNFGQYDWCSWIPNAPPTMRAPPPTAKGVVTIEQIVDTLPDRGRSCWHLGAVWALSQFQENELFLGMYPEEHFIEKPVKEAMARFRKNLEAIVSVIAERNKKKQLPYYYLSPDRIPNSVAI
Nature of the test: Test a) in vitro heparinised human blood, A23187 challenge, LTB4 radioimmunoassay (indirect inhibition of 5-LO). The test is classed as cell-based. The procedure:
a) An in vitro assay system involving incubating a test compound with heparinised human blood, prior to challenge with the calcium ionophore A^23187 and then indirectly measuring the inhibitory effects on 5-LO by assaying the amount of LTB4 using specific radioimmunoassays described by Carey and Forder (Prostaglandins, Leukotrienes Med., 1986, 22, 57; Prostaglandins, 1984, 28, 666; Brit. J. Pharmacol., 1985, 84, 34P) which involves the use of a protein-LTB4 conjugate produced using the procedure of Young et alia (Prostaglandins, 1983, 26(4), 605-613). The effects of a test compound on the enzyme cyclooxygenase (which is involved in the alternative metabolic pathway for arachidonic acid and gives rise to prostaglandins, thromboxanes and related metabolites) may be measured at the same time using the specific radioimmunoassay for thromboxane B2 (TxB2) described by Carey and Forder (see above). This test provides an indication of the effects of a test compound against 5-LO and also cyclooxygenase in the presence of blood cells and proteins. It permits the selectivity of the inhibitory effect on 5-LO or cyclooxygenase to be assessed.

For `COC1(c2cc(F)cc(Sc3ccc(C(C)N(O)C(N)=O)cc3)c2)CCOCC1` (stereo not drawn) [N-{4-[5-fluoro-3-(4-methoxytetrahydropyran-4-yl)phenylthio]-α-methylbenzyl)-N-hydroxyurea], the median effective dose (ED50) (in general, the dose at which the effect has come halfway, by size or by number of responders) in test [1] was approximately 0.5 mg/kg. Also, in test [2], the IC50 (usually the concentration that gives 50% inhibition) turned out to be 570 nM.
The like results for `CONC(C)c1ccc(Sc2cc(F)cc(C3(OC)CCOCC3)c2)cc1` (stereo not drawn) [N-{4-[5-fluoro-3-(4-methoxytetrahydropyran-4-yl)phenylthio]-α-methylbenzyl}-O-methylhydroxylamine] were, in that order, approximately 0.5 mg/kg and 40 nM.
The matching figures for `COC1(c2cc(F)cc(Sc3ccc(C(C)N(OC(C)=O)C(C)=O)cc3)c2)CCOCC1` (stereo not drawn) [O-acetyl-N-{4-[5-fluoro-3-(4-methoxytetrahydropyran-4-yl)phenylthio]-α-methylbenzyl}acetohydroxamic acid]: approximately 0.5 mg/kg and 150 nM.
